Test results reported in EP0341527A2, “Agent for increasing animal growth” (HOECHST AKTIENGESELLSCHAFT, priority 1988, dated 1989).

Legend:
männlichen Ratten = test: Feeding trial in male rats (growth, feed intake, feed conversion); type: in vivo; details: for Futterverwertung (g Futter/g Gewichtszunahme) relativ zur Kontrollgruppe in % / mittlere Futterverwertung relativ zur Kontrollgruppe in %: lower number = better feed conversion; for mittlere Futterverwertung relativ zur Kontrollgruppe in %: mean over 5-40 ppm Forskolin; for Futteraufnahme (g/d) / Futteraufnahme relativ zur Kontrolle / Gewicht (g) am Ende / Gewichtszunahme relativ zur Kontrolle (%): 28 d
Source text: In einem Fütterungsversuch mit 60 männlichen Ratten im Gewichtsabschnitt von 40 bis 170 g Lebendmasse wurde die Wirkung von 5, 10, 20 und 40 ppm Forskolin im Futter bei zwei verschiedenen Proteingehalten der Diäten (15 und 20 Gew.-% für eine suboptimale bzw. optimale Versorgung) auf das Wachstum, die Futteraufnahme und die Futterverwertung im Vergleich zum Futter ohne Gehalt an Forskolin untersucht. Die Diäten (Zusammensetzung siehe Tabelle 1) waren mit 16,6 und 16,8 kJ/g Trockensubstanz isokalorisch. Jeweils sechs Tiere wurden mit Futter gleichen Gehalts an Forskolin und Protein gefüttert und die Resultate für die Auswertung ermittelt. Die jeweiligen sechs Tiere wurden zu je zweien in Makrolonkäfigen in einer Klimakammer bei konstant 25°C und 65 % relativer Luftfeuchte 28 Tage lang gehalten.

[1] = system: Männliche Lohmann-Masthähnchen; test: Feeding trial in broilers (growth, feed intake, feed conversion); type: in vivo, Broilern; details: for Futteraufnahme (g/d) / Futteraufnahme, prozentualer Wert relativ zur Kontrollgruppe / Gewicht (Masse) am Ende, prozentualer Wert relativ zur Kontrollgruppe / Massezunahme, prozentualer Wert relativ zur Kontrollgruppe / Futterverwertung, prozentualer Wert relativ zur Kontrollgruppe / Gewicht (Masse) (g) am Ende / Massezunahme (g/d) / Futterverwertung g Futter/g Zunahme: 22 wt% protein; for Futterverwertung, prozentualer Wert relativ zur Kontrollgruppe / Futterverwertung g Futter/g Zunahme: lower = better; for Gewicht (Masse) (g) am Ende / Massezunahme (g/d) / Futterverwertung g Futter/g Zunahme: mean ± spread
Experimental: Männliche Lohmann-Masthähnchen mit einer Lebendmasse zwischen 35 und 45 g wurden in Gruppen von jeweils 20 Tieren pro Behandlung (100 cm²/Tier) auf einer Einstreu aus Hobelspänen bei 24-stündiger Beleuchtung und einer Temperatur von 36 ± 1°C bis zum 21. Versuchstag und 26 ± 1°C vom 22. bis zum 35. Versuchstag gehalten. Das Futter wurde ad libitum angeboten. Die Zusammensetzung des Futters (ohne Wirkstoff) ist in Tabelle 5 angegeben. Der Proteingehalt betrug 22 Gew.-% (entsprechend dem Bedarf). Forskolin wurde als Wurzelmehl über eine Glucose-Vormischung in die Ration eingebracht. Tabelle 5

[2] = 15 wt% crude protein diet, 5 ppm Forskolin in feed
[3] = 15 wt% crude protein diet, 10 ppm Forskolin in feed
[4] = 15 wt% crude protein diet, 20 ppm Forskolin in feed
[5] = 15 wt% crude protein diet, 40 ppm Forskolin in feed
[6] = 20 wt% crude protein diet, 5 ppm Forskolin in feed
[7] = 20 wt% crude protein diet, 10 ppm Forskolin in feed
[8] = 20 wt% crude protein diet, 20 ppm Forskolin in feed
[9] = 20 wt% crude protein diet, 40 ppm Forskolin in feed
[10] = 2 ppm Forskolin in feed (as root meal)
[11] = 4 ppm Forskolin in feed (as root meal)
[12] = 8 ppm Forskolin in feed (as root meal)
[13] = 16 ppm Forskolin in feed (as root meal)
[14] = 32 ppm Forskolin in feed (as root meal)
[15] = broilers, 'up to', 2-32 ppm Forskolin in feed

C=C[C@@]1(C)CC(=O)[C@]2(O)[C@@]3(C)[C@@H](O)CCC(C)(C)[C@@H]3[C@H](O)[C@H](OC(C)=O)[C@@]2(C)O1 [Forskolin]
Zuwachs (männlichen Ratten; 15 % protein, 5 ppm Forskolin): ca. 91 g | Futterverwertung (g Futter/g Gewichtszunahme) relativ zur Kontrollgruppe in % (männlichen Ratten; 15 % protein, 5 ppm Forskolin): 107,7% | Zuwachs (männlichen Ratten; 15 % protein, 10 ppm Forskolin): ~115 g | Futterverwertung (g Futter/g Gewichtszunahme) relativ zur Kontrollgruppe in % (männlichen Ratten; 15 % protein, 10 ppm Forskolin): 100,8% | Zuwachs (männlichen Ratten; 15 % protein, 20 ppm Forskolin): ~122 g | Futterverwertung (g Futter/g Gewichtszunahme) relativ zur Kontrollgruppe in % (männlichen Ratten; 15 % protein, 20 ppm Forskolin): 97,3% | Futterverwertung (g Futter/g Gewichtszunahme) relativ zur Kontrollgruppe in % (männlichen Ratten; 15 % protein, 40 ppm Forskolin): 109,3% | mittlere Futterverwertung relativ zur Kontrollgruppe in % (männlichen Ratten; 15 % protein): 103,7% | gesteigerte Zunahme an Lebendmasse im Vergleich zur entsprechenden Kontrollgruppe (männlichen Ratten; 15 and 20 wt% protein, up to 20 ppm Forskolin, within 28 days, 'up to'): ≤ 39% | Gewichtszunahme (g/28 d) (männlichen Ratten; [2]): 90,9 g/28 d | Futteraufnahme (g/d) (männlichen Ratten; [2]): 9,07 g/d | Futteraufnahme relativ zur Kontrolle (männlichen Ratten; [2]): 111,9 | Gewicht (g) am Ende (männlichen Ratten; [2]): 131,3 g | Gewichtszunahme relativ zur Kontrolle (%) (männlichen Ratten; [2]): 103,6% | Gewichtszunahme (g/28 d) (männlichen Ratten; [3]): 115,1 g/28 d | Futteraufnahme (g/d) (männlichen Ratten; [3]): 10,70 g/d | Futteraufnahme relativ zur Kontrolle (männlichen Ratten; [3]): 132,2 | Gewicht (g) am Ende (männlichen Ratten; [3]): 156,0 g | Gewichtszunahme relativ zur Kontrolle (%) (männlichen Ratten; [3]): 131,2% | Gewichtszunahme (g/28 d) (männlichen Ratten; [4]): 122,0 g/28 d | Futteraufnahme (g/d) (männlichen Ratten; [4]): 11,00 g/d | Futteraufnahme relativ zur Kontrolle (männlichen Ratten; [4]): 135,7 | Gewicht (g) am Ende (männlichen Ratten; [4]): 162,6 g | Gewichtszunahme relativ zur Kontrolle (%) (männlichen Ratten; [4]): 139,1% | Gewichtszunahme (g/28 d) (männlichen Ratten; [5]): 81,8 g/28 d | Futteraufnahme (g/d) (männlichen Ratten; [5]): 8,26 g/d | Futteraufnahme relativ zur Kontrolle (männlichen Ratten; [5]): 101,8 | Gewicht (g) am Ende (männlichen Ratten; [5]): 122,3 g | Gewichtszunahme relativ zur Kontrolle (%) (männlichen Ratten; [5]): 93,3% | Futterverwertung erhöht (männlichen Ratten; 20 % protein content, 'up to about', refers to mean feed conversion of Table 4): ≤ 8% | Futterverwertung (g Futter/g Gewichtszunahme) relativ zur Kontrollgruppe in % (männlichen Ratten; 20 % protein, 5 ppm Forskolin): 92,4% | Zuwachs (männlichen Ratten; 20 % protein, 10 ppm Forskolin): ~113 g | Futterverwertung (g Futter/g Gewichtszunahme) relativ zur Kontrollgruppe in % (männlichen Ratten; 20 % protein, 10 ppm Forskolin): 93,8% | Zuwachs (männlichen Ratten; 20 % protein, 20 ppm Forskolin): ~121 g | Futterverwertung (g Futter/g Gewichtszunahme) relativ zur Kontrollgruppe in % (männlichen Ratten; 20 % protein, 20 ppm Forskolin): 90,5% | Futterverwertung (g Futter/g Gewichtszunahme) relativ zur Kontrollgruppe in % (männlichen Ratten; 20 % protein, 40 ppm Forskolin): 92,0% | mittlere Futterverwertung relativ zur Kontrollgruppe in % (männlichen Ratten; 20 % protein): 92,2% | Gewichtszunahme (g/28 d) (männlichen Ratten; [6]): 117,6 g/28 d | Futteraufnahme (g/d) (männlichen Ratten; [6]): 10,70 g/d | Futteraufnahme relativ zur Kontrolle (männlichen Ratten; [6]): 115,7 | Gewicht (g) am Ende (männlichen Ratten; [6]): 157,7 g | Gewichtszunahme relativ zur Kontrolle (%) (männlichen Ratten; [6]): 124,4% | Gewichtszunahme (g/28 d) (männlichen Ratten; [7]): 112,9 g/28 d | Futteraufnahme (g/d) (männlichen Ratten; [7]): 10,40 g/d | Futteraufnahme relativ zur Kontrolle (männlichen Ratten; [7]): 112,4 | Gewicht (g) am Ende (männlichen Ratten; [7]): 153,2 g | Gewichtszunahme relativ zur Kontrolle (%) (männlichen Ratten; [7]): 119,9% | Gewichtszunahme (g/28 d) (männlichen Ratten; [8]): 120,5 g/28 d | Futteraufnahme (g/d) (männlichen Ratten; [8]): 10,70 g/d | Futteraufnahme relativ zur Kontrolle (männlichen Ratten; [8]): 115,7 | Gewicht (g) am Ende (männlichen Ratten; [8]): 161,9 g | Gewichtszunahme relativ zur Kontrolle (%) (männlichen Ratten; [8]): 127,9% | Gewichtszunahme (g/28 d) (männlichen Ratten; [9]): 103,1 g/28 d | Futteraufnahme (g/d) (männlichen Ratten; [9]): 9,31 g/d | Futteraufnahme relativ zur Kontrolle (männlichen Ratten; [9]): 100,6 | Gewicht (g) am Ende (männlichen Ratten; [9]): 143,0 g | Gewichtszunahme relativ zur Kontrolle (%) (männlichen Ratten; [9]): 109,4% | Futteraufnahme (g/d) [1, 10]: 88,4 g/d | Futteraufnahme, prozentualer Wert relativ zur Kontrollgruppe [1, 10]: 104,0% | Gewicht (Masse) am Ende, prozentualer Wert relativ zur Kontrollgruppe [1, 10]: 108,5% | Massezunahme, prozentualer Wert relativ zur Kontrollgruppe [1, 10]: 109,0% | Futterverwertung, prozentualer Wert relativ zur Kontrollgruppe [1, 10]: 94,6% | Gewicht (Masse) (g) am Ende [1, 10]: 1715,2±196,2 g | Massezunahme (g/d) [1, 10]: 45,4±5,4 g/d | Futterverwertung g Futter/g Zunahme [1, 10]: 1,97±0,24 g Futter/g Zunahme | Futteraufnahme (g/d) [1, 11]: 86,2 g/d | Futteraufnahme, prozentualer Wert relativ zur Kontrollgruppe [1, 11]: 101,6% | Gewicht (Masse) am Ende, prozentualer Wert relativ zur Kontrollgruppe [1, 11]: 106,4% | Massezunahme, prozentualer Wert relativ zur Kontrollgruppe [1, 11]: 106,0% | Futterverwertung, prozentualer Wert relativ zur Kontrollgruppe [1, 11]: 95,7% | Gewicht (Masse) (g) am Ende [1, 11]: 1682,5±253,7 g | Massezunahme (g/d) [1, 11]: 44,4±6,9 g/d | Futterverwertung g Futter/g Zunahme [1, 11]: 1,99±0,38 g Futter/g Zunahme | Futteraufnahme (g/d) [1, 12]: 83,8 g/d | Futteraufnahme, prozentualer Wert relativ zur Kontrollgruppe [1, 12]: 98,7% | Gewicht (Masse) am Ende, prozentualer Wert relativ zur Kontrollgruppe [1, 12]: 103,9% | Massezunahme, prozentualer Wert relativ zur Kontrollgruppe [1, 12]: 104,3% | Futterverwertung, prozentualer Wert relativ zur Kontrollgruppe [1, 12]: 93,8% | Gewicht (Masse) (g) am Ende [1, 12]: 1643,0±192,3 g | Massezunahme (g/d) [1, 12]: 43,5±5,3 g/d | Futterverwertung g Futter/g Zunahme [1, 12]: 1,95±0,24 g Futter/g Zunahme | Futteraufnahme (g/d) [1, 13]: 86,7 g/d | Futteraufnahme, prozentualer Wert relativ zur Kontrollgruppe [1, 13]: 102,0% | Gewicht (Masse) am Ende, prozentualer Wert relativ zur Kontrollgruppe [1, 13]: 103,1% | Massezunahme, prozentualer Wert relativ zur Kontrollgruppe [1, 13]: 103,4% | Futterverwertung, prozentualer Wert relativ zur Kontrollgruppe [1, 13]: 97,9% | Gewicht (Masse) (g) am Ende [1, 13]: 1629,5±242,4 g | Massezunahme (g/d) [1, 13]: 43,1±6,6 g/d | Futterverwertung g Futter/g Zunahme [1, 13]: 2,04±0,33 g Futter/g Zunahme | Futteraufnahme (g/d) [1, 14]: 86,4 g/d | Futteraufnahme, prozentualer Wert relativ zur Kontrollgruppe [1, 14]: 101,8% | Gewicht (Masse) am Ende, prozentualer Wert relativ zur Kontrollgruppe [1, 14]: 103,9% | Massezunahme, prozentualer Wert relativ zur Kontrollgruppe [1, 14]: 103,9% | Futterverwertung, prozentualer Wert relativ zur Kontrollgruppe [1, 14]: 97,2% | Gewicht (Masse) (g) am Ende [1, 14]: 1642,7±182,9 g | Massezunahme (g/d) [1, 14]: 43,3±5,0 g/d | Futterverwertung g Futter/g Zunahme [1, 14]: 2,02±0,28 g Futter/g Zunahme | Futterverwertung verbessert [1, 15]: ≤ 7% | Lebendmassezunahme gegenüber der Kontrollgruppe verbessert [1, 15]: ≤ 9%
